One assay relates to MDA-MB-435. Description: Cytotoxicity against human MDA-MB-435 cells assessed as reduction in cell viability by MTT assay. In kind it is functional, cell-based.
A further assay relates to A549. Description: Cytotoxicity against human A549 cells assessed as reduction in cell viability by MTT assay. It counts as functional, cell-based.

A word on the IC50: it is the point on the concentration scale where inhibition reaches its midpoint. Take `CCC(=O)Oc1cc(C)cc(Oc2cc(C)cc(OC)c2)c1`: in the assay on MDA-MB-435, the half-inhibitory concentration (IC50) worked out at 31.9 µM.

For `CC(C)(c1ccc(O)cc1)c1ccc(OCC(O)COc2ccc(C(C)(C)c3ccc(O)cc3)cc2)cc1`, the IC50 in the assay with A549 is 18.4 µM; in the assay with MDA-MB-435, 22.3 µM.

On to `COc1cc(C)cc(Oc2cc(C)cc(OC)c2)c1`, for which, in the assay with MDA-MB-435, the IC50 came out at 12.5 µM.

Consider `COc1cc(C)cc(Oc2cc(C)cc(O)c2)c1` [CORDYOL E], for which, in the assay on MDA-MB-435, the half-inhibitory concentration (IC50) turned out to be 41.1 µM.

These data come from ChEMBL document CHEMBL4342447, “l-Phenylalanine Alters the Privileged Secondary Metabolite Production in the Marine-Derived Fungus Trichoderma erinaceum F1-1” (J Nat Prod, 2020).
